According to PubChem BioAssay (NCI):
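Where inhibition never reached the appropriate level, the endpoint shown equals the highest concentration tested. Otherwise, values were interpolated linearly from a five-concentration, 48-hour dose response in 96-well plates. At the GI50, growth is halved. At the TGI there is no net growth.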

How the values were obtained:
Experiment in all cases: inhibition of tumour cell growth, NCI panel, 48 h
SK-MEL-28 melanoma = tested on: SK-MEL-28 melanoma
MDA-MB-435 = tested on: MDA-MB-435
SF-295 CNS = tested on: SF-295 CNS
KM12 colon = tested on: KM12 colon
A498 renal = tested on: A498 renal
IGROV1 ovarian = tested on: IGROV1 ovarian
SK-OV-3 ovarian = tested on: SK-OV-3 ovarian
M14 melanoma = tested on: M14 melanoma
UACC-257 melanoma = tested on: UACC-257 melanoma
A549 NSCLC = tested on: A549 NSCLC

SMILES	TGI (SK-MEL-28 melanoma) [µM]	TGI (MDA-MB-435) [µM]	TGI (SF-295 CNS) [µM]	TGI (KM12 colon) [µM]	TGI (A498 renal) [µM]	TGI (IGROV1 ovarian) [µM]	TGI (SK-OV-3 ovarian) [µM]	TGI (M14 melanoma) [µM]	TGI (UACC-257 melanoma) [µM]	TGI (A549 NSCLC) [µM]	GI50 (SK-MEL-28 melanoma) [µM]	GI50 (MDA-MB-435) [µM]	GI50 (SF-295 CNS) [µM]	GI50 (KM12 colon) [µM]	GI50 (A498 renal) [µM]	GI50 (IGROV1 ovarian) [µM]	GI50 (SK-OV-3 ovarian) [µM]	GI50 (M14 melanoma) [µM]	GI50 (UACC-257 melanoma) [µM]	GI50 (A549 NSCLC) [µM]
Nc1ccc(S(=O)(=O)C23CC4CC(CC(C4)C2)C3)cc1	> 100	> 100	> 100	> 100	> 100	> 100	> 100	> 100	> 100	> 100	–	–	–	–	–	–	–	–	–	–
C#CC1(O)C(COP(=O)(O)OC2CC(n3cc(F)c(=O)[nH]c3=O)OC2CO)OC(n2ccc(N)nc2=O)C1O (centres undefined)	1.72	0.545	–	> 29	1.87	> 35.9	> 100	0.774	2.18	> 54.4	0.0474	< 0.0176	< 0.01	< 0.01	0.0824	< 0.0139	0.0735	< 0.0211	0.0663	< 0.01
CC(C)c1ccc(C(=O)Nc2sc3c(c2C#N)CCC(=O)C3)cc1	9.84	5.72	> 28.1	7.83	6.29	13.1	8.15	26.4	6.05	> 100	0.754	1.02	1.36	0.413	1.92	0.458	2.39	0.592	1.73	1.63
NC(=O)c1cc(Br)cc(C2CCCCC2)c1O	27.3	28.8	24.5	24.5	14.8	25.9	31.1	25.6	30.1	27.1	14	14.7	11.3	11.7	1.01	12.4	17.2	12.8	16.3	13.4
CN(C)N1C(=O)c2ccccc2NC1c1ccccc1 (centres undefined)	> 100	> 100	> 100	> 100	> 100	> 100	> 100	> 100	> 100	> 100	–	–	–	–	–	–	–	–	–	–
NNc1nc2ccccc2c(=O)n1NC(=O)C(=O)Nc1cccc(C(F)(F)F)c1	> 100	> 100	> 100	> 100	> 100	> 100	> 100	> 100	> 100	> 100	–	–	–	–	–	–	–	–	–	–
N=C(N=C(N)N)N1CCN(c2ccncc2)CC1	> 1000	> 1000	> 1000	> 1000	> 1000	> 1000	> 1000	> 1000	> 1000	> 1000	> 1000	> 1000	> 1000	> 1000	155	> 1000	> 1000	> 1000	> 1000	> 1000
COc1ccc2c(Nc3ccc(NS(C)(=O)=O)cc3)c3ccccc3nc2c1	3.45	2.4	2.53	9.19	2.05	16.7	5.26	2.03	2.17	2.7	1.38	0.817	0.381	0.533	0.375	0.418	0.364	0.599	0.628	0.151
O=C1C=C(Br)C(=O)C12CCc1ccccc12 (centres undefined)	27.2	31.8	36.6	44.6	24.1	39.3	42.6	19.3	41.3	55.4	–	–	–	–	–	–	–	–	–	–
CCOC(=O)C(=Cc1ccccc1[N+](=O)[O-])C(=O)OCC	9.59	12.1	20.1	10.3	17.3	15.4	12.7	10.1	14.3	17.5	2.93	3.08	5.38	2.72	5.6	3.77	3.51	2.95	3.25	4.05
C=C1C(=O)OC2CC1C(O)C/C(C)=C/CC/C(C)=C/C(O)CC2C (centres undefined)	9.8	13.4	26.7	18.3	9.16	9.3	26.5	9.63	10.3	28.1	–	–	–	–	–	–	–	–	–	–
CC[C@@]1(O)C(=O)NCc2c1cc1n(c2=O)Cc2cc3c(N)cccc3nc2-1	> 77.7	18.5	> 46.8	> 36.9	38.6	> 100	> 86.1	> 65.8	> 79.5	> 69	8.8	4.8	1.01	10.6	5.09	10.1	4.54	0.685	6.15	2.5
O=c1[nH]c(=O)n(C2OC(CO)C(O)C2O)c2c1CCCC2 (centres undefined)	> 100	> 100	> 100	> 100	> 100	> 100	> 100	> 100	> 100	> 100	–	–	–	–	–	–	–	–	–	–
N#Cc1cnc2cc(OC[C@@H](O)CO)c(NC(=O)CC3CSSC3)cc2c1Nc1ccc(OCc2cccc(F)c2)c(Cl)c1	0.136	0.303	1.78	0.251	1.92	1.11	1.27	0.175	0.829	1.72	0.0632	0.113	0.88	0.112	0.848	0.288	0.567	0.0828	0.195	0.842
COc1ccc(-c2cc(/C=C3\C(=O)Nc4ccc(Cl)cc43)[nH]n2)cc1	19.5	4.47	12.8	19.6	16.3	17.9	13.8	15.2	21.4	18.5	6.6	1.86	3.29	3.96	3.83	5	4.07	4.02	8.78	6.54
C=C1C(=O)O[C@H]2[C@H]1CC/C(COC(=O)NCc1ccc(Cn3c(=O)sn(CCCCl)c3=O)cc1)=C\CC[C@@]1(C)O[C@@H]21	3.16	3.89	31.7	17.5	11.8	3.88	32.2	4.5	3.41	34.6	1.69	1.8	17.7	4.92	2.83	1.78	18.3	1.93	1.61	19.2
Cc1sc(C)c(Cc2c(C)sc(C)c2CCl)c1CCl	> 100	> 100	> 100	> 100	> 100	> 100	> 100	> 100	> 100	> 100	> 100	> 100	> 100	> 100	> 100	> 100	> 100	> 100	> 100	> 100
OCC1OC(n2ccc3c(NO)ncnc32)C(O)C1O (centres undefined)	0.873	0.632	0.599	1.12	0.794	1.17	5.38	0.578	0.866	3.58	0.231	0.198	0.144	0.234	0.152	0.088	0.12	0.077	0.232	0.087
COCCOC(=O)NC(=O)Nc1ccc(/C(=N/O)c2ccc(Cl)cc2)cc1	48	0.374	0.559	29.1	3.46	> 69	25.1	18.4	48.9	> 85.3	11.5	0.092	0.123	0.0996	0.179	0.269	0.118	0.0843	13	0.284
Nc1nnc2cc(Cl)ccc2n1	> 100	> 100	> 100	> 100	> 100	> 100	> 100	> 100	> 100	> 100	> 100	> 100	74	> 100	> 100	34.3	> 100	> 100	> 100	73.2
Clc1ccc2[nH]cc(-c3nc(-c4c[nH]c5ncccc45)cs3)c2c1	20.1	14.8	7.66	12.2	10.4	28.6	39	11.1	6.78	62.4	6.43	3.44	2.74	3.17	2.08	3.04	6.16	3.2	2.56	2.94
